In the supplement of paper PMC10307832:

Key:
Assay in all cases: relative viability (nuclei count vs DMSO), 5 days (fraction); higher = more cells survive
[1] = compound: CN1CCN(CC1)C2=CC(=C(C=C2)NC3=NC=C4C(=N3)N(C5=CC=CC=C5C(=O)N4C)C)OC [XMD8-85] + CC1(C)CCC(c2ccc(Cl)cc2)=C(CN2CCN(c3ccc(C(=O)NS(=O)(=O)c4ccc(N[C@H](CCN5CCOCC5)CSc5ccccc5)c(S(=O)(=O)C(F)(F)F)c4)cc3)CC2)C1 [Navitoclax] (partner 0.5 µM)
How it was run: (§1)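 Relative viability is defined as nuclei in treated wells over nuclei in vehicle wells. Duplicate plates were run and medians reported. Lung cancer cell lines in 1536-well plates were dosed by pin tool one day after seeding, with one drug or with a fixed anchor-drug dose plus five library-drug doses (not always all listed) in √10 steps, and nuclei were counted after 5 days.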

[2] = compound: CN1CCN(CC1)C2=CC(=C(C=C2)NC3=NC=C4C(=N3)N(C5=CC=CC=C5C(=O)N4C)C)OC [XMD8-85] + N=C(N)NC(=N)NCCc1ccccc1 [Phenformin] (partner 250 µM)
How it was run: as §1

[3] = compound: O=C(O)C(Cc1ccccc1[N+](=O)[O-])=NNc1nc(-c2ccc(Cl)c(Cl)c2)cs1 (mixture of isomers) [4EGI-1] + CCNC(=O)c1noc(-c2cc(C(C)C)c(O)cc2O)c1-c1ccc(CN2CCOCC2)cc1 [Luminespib] (partner 0.01 µM)
How it was run: as §1

[4] = compound: O=C(O)C(Cc1ccccc1[N+](=O)[O-])=NNc1nc(-c2ccc(Cl)c(Cl)c2)cs1 (mixture of isomers) [4EGI-1] + Cc1nc(NC(=O)N2CCC[C@H]2C(N)=O)sc1-c1ccnc(C(C)(C)C(F)(F)F)c1 [Alpelisib] (partner 2 µM)
How it was run: as §1

Cell Line | relative viability ([1]; first compound 0.08 µM) | relative viability ([1]; first compound 0.253 µM) | relative viability ([1]; first compound 0.8 µM) | relative viability ([1]; first compound 2.53 µM) | relative viability ([1]; first compound 8 µM) | relative viability ([2]; first compound 0.08 µM) | relative viability ([2]; first compound 0.253 µM) | relative viability ([2]; first compound 0.8 µM) | relative viability ([2]; first compound 2.53 µM) | relative viability ([2]; first compound 8 µM) | relative viability ([3]; first compound 0.5 µM) | relative viability ([3]; first compound 1.581 µM) | relative viability ([3]; first compound 5 µM) | relative viability ([3]; first compound 15.81 µM) | relative viability ([3]; first compound 50 µM) | relative viability ([4]; first compound 0.5 µM) | relative viability ([4]; first compound 1.581 µM) | relative viability ([4]; first compound 5 µM) | relative viability ([4]; first compound 15.81 µM) | relative viability ([4]; first compound 50 µM)
HARA | 1.17 | 1.15 | 1.13 | 1 | 0.443 | 0.455 | 0.515 | 0.427 | 0.42 | 0.26 | 0.954 | 0.958 | 0.968 | 0.645 | 0.0683 | 0.935 | 0.921 | 0.837 | 0.833 | 0.295
LC-2-ad | 0.512 | 0.364 |  | 0.574 | 0.328 | 0.592 | 0.55 | 0.611 | 0.595 |  | 1.13 |  | 0.906 | 0.385 | 0.269 | 0.865 | 0.758 | 0.858 | 0.822 | 0.137
NCI-H2087 | 1.06 | 1.01 | 1.17 | 1.05 | 0.772 | 0.495 | 0.441 | 0.562 | 0.396 | 0.389 | 0.191 | 0.139 | 0.198 | 0.206 | 0.135 | 1.17 | 1.09 | 0.985 | 0.839 | 0.221
EKVX | 0.931 | 0.999 | 0.89 | 1.03 | 0.892 | 0.226 | 0.218 | 0.228 | 0.245 | 0.202 | 0.847 | 0.628 | 0.925 | 0.701 | 0.895 | 1.12 | 0.85 | 0.971 | 0.648 | 0.826
NCI-H1355 | 1.06 | 1.01 | 0.977 | 0.862 | 0.804 | 0.417 | 0.409 | 0.422 | 0.437 | 0.408 | 0.708 | 0.706 | 0.762 | 0.445 | 0.326 | 0.876 | 0.79 | 0.772 | 0.477 | 0.504
HOP-62 | 0.996 | 1.08 | 0.939 | 0.992 | 0.79 | 0.595 | 0.535 | 0.659 | 0.683 | 0.469 | 0.974 |  | 0.868 | 0.89 | 0.31 | 1.13 |  | 1.12 | 1.13 | 0.745
BEN | 0.0618 | 0.0742 | 0.437 | 0.0692 | 0.0637 | 0.275 | 0.266 | 0.267 | 0.306 | 0.258 | 0.371 | 0.332 | 0.318 | 0.331 | 0.152 | 1.05 | 1.17 | 1.11 | 1.07 | 0.915
NCI-H2023 | 0.924 | 1.08 | 1.13 | 0.997 |  | 0.347 | 0.398 | 0.422 | 0.355 | 0.327 | 0.897 | 0.544 | 0.798 | 0.203 | 0.0714 | 0.578 |  | 0.582 | 0.41 | 0.264
NCI-H1651 | 1.09 | 1 | 1.13 | 0.976 | 0.849 | 0.349 | 0.312 | 0.265 | 0.366 | 0.298 | 0.975 | 0.658 | 1.01 | 0.933 | 0.924 | 0.927 | 0.914 | 0.913 | 0.906 | 0.556
NCI-H1666 | 0.932 | 1 | 0.865 | 0.729 | 0.727 | 0.578 | 0.601 | 0.574 | 0.567 | 0.576 | 1.1 | 0.982 | 1.04 | 0.812 | 0.397 | 1.08 | 1.07 | 1.15 | 0.403 | 0.212
LU99A | 0.857 | 0.689 | 0.888 | 0.892 | 0.44 | 0.816 | 0.881 | 0.858 | 0.936 | 0.701 | 0.246 | 0.271 | 0.308 | 0.228 | 0.205 | 0.613 |  | 0.538 | 0.539 | 0.171
NCI-H322M | 1.21 | 1.1 | 1.34 | 1.2 | 1.05 | 0.74 |  | 0.749 | 0.819 | 0.479 | 1 |  | 0.855 | 0.727 | 0.321 | 0.778 | 0.895 | 0.771 | 0.722 | 0.809
